Results taken from the NIST ThermoML archive (doi:10.1021/je800157v).

Assay: xn = mol fraction of the nth substance listed
Conditions: 101 kPa, Liquid

ClC(Cl)Cl [trichloromethane] + CCC(C)O
mass density [kg/m3]
Conditions | 288.15 K | 293.15 K | 298.15 K
x2 = 0 | 1498.08 | 1488.64 | 1479.15
x2 = 0.0514 | 1455.49 | 1446.33 | 1437.12
x2 = 0.1045 | 1413.17 | 1404.26 | 1395.31
x2 = 0.1518 | 1376.62 | 1367.94 | 1359.22
x2 = 0.1962 | 1342.92 | 1334.49 | 1326.01
x2 = 0.2512 | 1302.06 | 1293.92 | 1285.73
x2 = 0.2998 | 1266.64 | 1258.77 | 1250.84
x2 = 0.3507 | 1230.33 | 1222.74 | 1215.09
x2 = 0.3995 | 1196.11 | 1188.78 | 1181.4
x2 = 0.4502 | 1161.11 | 1154.06 | 1146.95
x2 = 0.4978 | 1128.73 | 1121.94 | 1115.08
x2 = 0.546 | 1096.47 | 1089.93 | 1083.34
x2 = 0.6008 | 1060.39 | 1054.14 | 1047.83
x2 = 0.6498 | 1028.63 | 1022.64 | 1016.59
x2 = 0.7008 | 995.87 | 990.15 | 984.37
x2 = 0.7446 | 968.17 | 962.68 | 957.13
x2 = 0.7984 | 934.4 | 929.2 | 923.93
x2 = 0.8507 | 901.92 | 897 | 892.02
x2 = 0.9 | 871.62 | 866.99 | 862.29
x2 = 0.9486 | 841.91 | 837.56 | 833.14
